Data: patent publication US7442501B2, “SQV nucleic acids and polypeptides” (Massachusetts Institute of Technology, priority 2002, dated 2008)

Tested on: MBP-SQV-1
Assay: UDP-glucuronic acid decarboxylase assay (HPLC-MS)
Assay type: biochemical, C. elegans
Settings: in the presence of NAD+ cofactor
Experimental: This enzymatic reaction mixture was analyzed using an HPLC coupled to a mass spectrometer. Ion phase reverse polarity HPLC separated the nucleotide sugars and […] into three peaks of elution as detected by UV (FIG. 3A). These peaks were determined by mass spectrometry to be the substrate UDP-glucuronic acid, the product UDP-xylose, and the cofactor NAD^+. Negative polarity mass spectra identified the masses of the most abundant compounds in the reaction sample as 579 and 535 (FIG. 3B). These masses corresponded to the molecular masses of UDP-glucuronic acid (580) and UDP-xylose (536). The slight difference in molecular mass (579 versus 580 and 535 versus 536) was due to the negative ionization by the mass spectrometer, which removed one hydrogen atom from each compound. The presence of isotopic masses of 536 and 537 corresponded to subpopulations of UDP-xylose containing heavy isotopes such as ^13C.
Standard molecular biology techniques were used (Sambrook et al., Molecular Cloning: A Laboratory Manual. Plainview, N.Y., Cold Spring Harbor Laboratory Pess, 1989) to obtain a construct that encoded a SQV-1-maltose-binding protein (MBP) fusion protein. The sqv-1 coding sequence was cloned into the MBP encoding vector, pMAL-c2. The oligonucleotides 5′-[…]-3′ (SEQ ID NO:32) and 5′-[…]-3′ (SEQ ID NO:33) were used to PCR-amplify the sqv-1 ORF. […]

O=C(O)[C@H]1O[C@H](OP(=O)(O)OP(=O)(O)OC[C@H]2O[C@@H](n3ccc(=O)[nH]c3=O)[C@H](O)[C@@H]2O)[C@H](O)[C@@H](O)[C@@H]1O [UDP-glucuronic acid]
conversion by MBP-SQV-1 fusion protein: generated UDP-xylose from UDP-glucuronic acid
